Measured values published in PubChem BioAssay AID1919013 (Molecular Pharmacology Branch, DTP, NCI, 2023).
Values belong to the compound of their own block, whether it stands above or below them.

Test system: LG0703-F498-PDC complex spheroid growth
Assay: Anticancer human tumor LG0703-F498-PDC patient-derived lung adenocarcinoma cell line growth inhibition [AhR]
Conditions: for IC50: curve of first compound; for viability, T/C: stronger effect = lower value
How it was run: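 Agents were dosed in half-log steps down from roughly clinical Cmax, or from 10 microM where Cmax was unknown, alone and with AhR antagonists. Read-out: percent test/control growth of tumor spheroids containing HUVEC and MSC stromal cells.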

[1] = second compound 0.1 µM, first compound 0.00949 µM
[2] = second compound 0.1 µM, first compound 0.03 µM
[3] = second compound 0.1 µM, first compound 0.0949 µM
[4] = second compound 0.1 µM, first compound 0.3 µM
[5] = second compound 0.316 µM, first compound 0.00949 µM
[6] = second compound 0.316 µM, first compound 0.03 µM
[7] = second compound 0.316 µM, first compound 0.0949 µM
[8] = second compound 0.316 µM, first compound 0.3 µM
[9] = second compound 1 µM, first compound 0.00949 µM
[10] = second compound 1 µM, first compound 0.03 µM
[11] = second compound 1 µM, first compound 0.0949 µM
[12] = second compound 1 µM, first compound 0.3 µM
[13] = second compound 3.16 µM, first compound 0.00949 µM
[14] = second compound 3.16 µM, first compound 0.03 µM
[15] = second compound 3.16 µM, first compound 0.0949 µM
[16] = second compound 3.16 µM, first compound 0.3 µM
[17] = second compound 10 µM, first compound 0.00949 µM
[18] = second compound 10 µM, first compound 0.03 µM
[19] = second compound 10 µM, first compound 0.0949 µM
[20] = second compound 10 µM, first compound 0.3 µM
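Further: luminescence taken as a proxy for viable cell amount.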
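Wherever viability, T/C is given: percent of DMSO vehicle control where 100% means growth equal to vehicle.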

IC50 (second compound 0.1 µM): 76.8 nM
IC50 (second compound 0.316 µM): 70.8 nM
IC50 (second compound 1 µM): 132 nM
IC50 (second compound 3.16 µM): 85.7 nM
IC50 (second compound 10 µM): 119 nM
Structure (SMILES): O=C(C=Cn1cnc(-c2cc(C(F)(F)F)cc(C(F)(F)F)c2)n1)NNc1cnccn1 + Cc1ccccc1N=Nc1ccc(NC(=O)c2ccnn2C)c(C)c1
viability, T/C [1]: 76.4%
viability, T/C [2]: 73%
viability, T/C [3]: 44.9%
viability, T/C [4]: 37.3%
viability, T/C (second compound 0.1 µM, first compound 0.949 µM): 43.8%
viability, T/C (second compound 0.1 µM, first compound 3 µM): 39.3%
viability, T/C [5]: 85.4%
viability, T/C [6]: 64.2%
viability, T/C [7]: 45.5%
viability, T/C [8]: 39.7%
viability, T/C (second compound 0.316 µM, first compound 0.949 µM): 46.6%
viability, T/C (second compound 0.316 µM, first compound 3 µM): 39.4%
viability, T/C [9]: 83%
viability, T/C [10]: 72%
viability, T/C [11]: 54%
viability, T/C [12]: 39.8%
viability, T/C (second compound 1 µM, first compound 0.949 µM): 40%
viability, T/C (second compound 1 µM, first compound 3 µM): 34.8%
viability, T/C [13]: 71.1%
viability, T/C [14]: 63.6%
viability, T/C [15]: 47%
viability, T/C [16]: 44.6%
viability, T/C (second compound 3.16 µM, first compound 0.949 µM): 35.3%
viability, T/C (second compound 3.16 µM, first compound 3 µM): 39.9%
viability, T/C [17]: 70%
viability, T/C [18]: 61.3%
viability, T/C [19]: 50.6%
viability, T/C [20]: 45.8%
viability, T/C (second compound 10 µM, first compound 0.949 µM): 39.2%
viability, T/C (second compound 10 µM, first compound 3 µM): 39.7%

IC50 (second compound 0.1 µM): 47.4 nM
IC50 (second compound 0.316 µM): 24.4 nM
IC50 (second compound 1 µM): 28.3 nM
IC50 (second compound 3.16 µM): 19.8 nM
IC50 (second compound 10 µM): 15.7 nM
Structure (SMILES): CCc1c2c(nc3ccc(O)cc13)-c1cc3c(c(=O)n1C2)COC(=O)[C@]3(O)CC + CC(CO)NC(=O)c1cc(-c2ccc(Cl)cc2)nn(-c2cnn(C)c2)c1=O
viability, T/C (second compound 0.1 µM, first compound 0.000949 µM): 96.2%
viability, T/C (second compound 0.1 µM, first compound 0.003 µM): 84.6%
viability, T/C [1]: 69.7%
viability, T/C [2]: 54%
viability, T/C [3]: 44%
viability, T/C [4]: 26.3%
viability, T/C (second compound 0.316 µM, first compound 0.000949 µM): 82.8%
viability, T/C (second compound 0.316 µM, first compound 0.003 µM): 94.1%
viability, T/C [5]: 62.5%
viability, T/C [6]: 46.9%
viability, T/C [7]: 36.9%
viability, T/C [8]: 24.3%
viability, T/C (second compound 1 µM, first compound 0.000949 µM): 79%
viability, T/C (second compound 1 µM, first compound 0.003 µM): 75.6%
viability, T/C [9]: 67.8%
viability, T/C [10]: 48.9%
viability, T/C [11]: 32.6%
viability, T/C [12]: 26%
viability, T/C (second compound 3.16 µM, first compound 0.000949 µM): 72.7%
viability, T/C (second compound 3.16 µM, first compound 0.003 µM): 73.2%
viability, T/C [13]: 58.5%
viability, T/C [14]: 45.6%
viability, T/C [15]: 27.8%
viability, T/C [16]: 22.5%
viability, T/C (second compound 10 µM, first compound 0.000949 µM): 72%
viability, T/C (second compound 10 µM, first compound 0.003 µM): 74%
viability, T/C [17]: 56.5%
viability, T/C [18]: 40.5%
viability, T/C [19]: 26.4%
viability, T/C [20]: 24.5%

IC50 (second compound 0.1 µM): 6260 nM
IC50 (second compound 0.316 µM): 6520 nM
IC50 (second compound 1 µM): 5650 nM
IC50 (second compound 3.16 µM): 5770 nM
IC50 (second compound 10 µM): 7190 nM
Structure (SMILES): CC1(C)CCC(CN2CCN(c3ccc(C(=O)NS(=O)(=O)c4ccc(NCC5CCOCC5)c([N+](=O)[O-])c4)c(Oc4cnc5[nH]ccc5c4)c3)CC2)=C(c2ccc(Cl)cc2)C1 + Cc1ccccc1N=Nc1ccc(NC(=O)c2ccnn2C)c(C)c1
viability, T/C (second compound 0.1 µM, first compound 0.0316 µM): 102%
viability, T/C (second compound 0.1 µM, first compound 0.1 µM): 94.5%
viability, T/C (second compound 0.1 µM, first compound 0.316 µM): 94.1%
viability, T/C (second compound 0.1 µM, first compound 1 µM): 94.3%
viability, T/C (second compound 0.1 µM, first compound 3.16 µM): 95.2%
viability, T/C (second compound 0.1 µM, first compound 10 µM): 19.1%
viability, T/C (second compound 0.316 µM, first compound 0.0316 µM): 98.7%
viability, T/C (second compound 0.316 µM, first compound 0.1 µM): 104%
viability, T/C (second compound 0.316 µM, first compound 0.316 µM): 100%
viability, T/C (second compound 0.316 µM, first compound 1 µM): 89.5%
viability, T/C (second compound 0.316 µM, first compound 3.16 µM): 92.9%
viability, T/C (second compound 0.316 µM, first compound 10 µM): 24.5%
viability, T/C (second compound 1 µM, first compound 0.0316 µM): 96.8%
viability, T/C (second compound 1 µM, first compound 0.1 µM): 87%
viability, T/C (second compound 1 µM, first compound 0.316 µM): 107%
viability, T/C (second compound 1 µM, first compound 1 µM): 91.1%
viability, T/C (second compound 1 µM, first compound 3.16 µM): 78.5%
viability, T/C (second compound 1 µM, first compound 10 µM): 22.2%
viability, T/C (second compound 3.16 µM, first compound 0.0316 µM): 79%
viability, T/C (second compound 3.16 µM, first compound 0.1 µM): 90.9%
viability, T/C (second compound 3.16 µM, first compound 0.316 µM): 82.9%
viability, T/C (second compound 3.16 µM, first compound 1 µM): 107%
viability, T/C (second compound 3.16 µM, first compound 3.16 µM): 75.4%
viability, T/C (second compound 3.16 µM, first compound 10 µM): 26.8%
viability, T/C (second compound 10 µM, first compound 0.0316 µM): 95%
viability, T/C (second compound 10 µM, first compound 0.1 µM): 86%
viability, T/C (second compound 10 µM, first compound 0.316 µM): 96.2%
viability, T/C (second compound 10 µM, first compound 1 µM): 76.2%
viability, T/C (second compound 10 µM, first compound 3.16 µM): 83.3%
viability, T/C (second compound 10 µM, first compound 10 µM): 37.7%
